{"source": "patent US20020151563A1", "about": "“Farnesyl transferase inhibitors in combination with HMG CoA reductase inhibitors for the inhibition of abnormal cell growth” (Pfizer Inc., priority 2001, published 2002)", "tested_on": "NIH-3T3 tranfectant overexpressing mutant K-ras 4B", "assay": "Prenylation of K-ras 4B in intact cells (anti-Pan-ras immunoblot, densitometric scanning)", "assay_type": "cell-based", "conditions": "72 hours at 37° C.; 0, 1.0, 5.0, 10.0 and 25 μm FTase inhibitor in the presence versus absence of 5,M of hydrolysed lovastatin", "experimental": "The effectiveness of the FTase inhibitor 6-[(4-chloro-phenyl)-hydroxy-(3-methyl-3H-imidazol4-yl)-methyl]-4-(3-ethynyl-phenyl)-1-methyl-1H-quinolin-2-one on prenylation of K-ras 4B in intact cells is enhanced by a minimally effective dose of lovastatin. Semi-confluent monolayers of the NIH-3T3 tranfectant overexpressing mutant K-ras 4B are treated for 72 hours at 37° C. with increasing concentrations (0, 1.0 μm, 5.0 μm 10.0 μm and 25 μm) of 6-[(4-chloro-phenyl)-hydroxy-(3-methyl-3H-imidazol4-yl)-methyl]4-(3-ethynyl-phenyl)-1-methyl-1H-quinolin-2-one in the presence and absence of 5,M of hydrolysed lovastatin. […] The blots are incubated with peroxidase-conjugated secondary antibody, and the immunoblotted Ras protein are detected by enhanced chemiluminescence (Amersham Life Products, Arlington Heights, Ill.). Percent of prenylated Ras is determined by densitometric scanning using MasterScan 3.0 (Scanalytics, Billerica, Mass.). […]", "data": [{"smiles": "C#Cc1cccc(-c2cc(=O)n(C)c3ccc(C(O)(c4ccc(Cl)cc4)c4cncn4C)cc23)c1", "note": "(stereo not shown) [6-[(4-chloro-phenyl)-hydroxy-(3-methyl-3H-imidazol4-yl)-methyl]-4-(3-ethynyl-phenyl)-1-methyl-1H-quinolin-2-one]", "values": [{"measurement": "effectiveness on the inhibition of prenylation of K-ras 4B in intact cells (percent of prenylated Ras)", "result": "enhanced"}]}]}
